# Data: publication doi:10.1101/2020.07.08.194076v1 (biorxiv, 2020)
# Test system: SlG3
# Assay: GGPPS enzyme assay
# Format: biochemical, Solanum lycopersicum
Km (co-substrate 100 µM IPP) [µM],Km (co-substrate 100 µM DMAPP) [µM],Compound
45.8 ± 6.81,,CC(C)=CCOP(=O)(O)OP(=O)(O)O [DMAPP]
,45.9 ± 4.86,C=C(C)CCOP(=O)(O)OP(=O)(O)O [IPP]
